# Test results published in publication PMC12586598, “A novel long-acting C5a-blocking cyclic peptide prevents sepsis-induced organ dysfunction via effective blockade of the inflammatory cascade” (Signal Transduction and Targeted Therapy, 2025).
# Where a SMILES comes first, the peptide text is derived from it.
# What was measured:
# CLP model mice [1] = assay: Routine blood test: neutrophils and monocytes in CLP model mice; assay type: in vivo, mouse; settings: 100 μg/20 g i.v.
# Experimental: The cecal ligation and puncture (CLP) model was established in male C57BL/6 mice (9-10 weeks old). Briefly, a midline laparotomy was performed to exteriorize the cecum under general anesthesia. The cecum was ligated at the distal three-quarters using sutures. Subsequently, a single through-and-through puncture was made in the ligated segment using a 22-gaμge needle, followed by small volume of fecal content was gentle extrusion. The cecum was then repositioned within abdominal cavity, and the laparotomy incision was closed in layers. All animals were administered 1 mL of sterile saline for postoperative fluid resuscitation. Sham-operated controls underwent identical surgical procedures without cecal ligation or puncture. In this work, mice received administration via intravenous injection 1 hour after CLP surgery. The animal mortality was determined by the presence of confirmed death. […] Subsequently, mice were sacrificed to collect the main organs for morphological and pathological analysis.
# CLP model mice [2] = assay: cfDNA and neutrophil elastase in plasma of CLP mice; assay type: in vivo, mouse; settings: 100 μg/20 g, 24 h after CLP surgery, relative to Sham set as 0%
# Experimental: To determine the levels of cfDNA and elastase in plasma, blood samples were collected, and plasma was prepared 24 h after CLP surgery. cfDNA was extracted via the VAHTS Serum/Plasma Circulating DNA Kit (Vazyme, Nanjing) and quantified via qPCR. Elastase was quantified via an NE ELISA Kit (Cusabio, Wuhan).
# mouse C5a-desArg = biological target: T1, mouse C5a-desArg (Mus musculus, UniProt P06684); assay: SPR binding affinity assay, immobilized mouse C5a-desArg
# T1 construct: mouse C5a-desArg (MCE, Shanghai, China); purchased MCE
# T1 sequence (P06684 679-754 limits assumed): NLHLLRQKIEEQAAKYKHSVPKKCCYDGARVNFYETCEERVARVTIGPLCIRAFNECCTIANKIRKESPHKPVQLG
# Experimental: (§1) Surface plasmon resonance (SPR) analysis was conducted using Biacore 2000 system (GE Healthcare, Germany) at 37°C in running buffer (20 mM Tris-HCl, pH 7.4, 150 mM NaCl, 5 mM KCl, 1 mM MgCl₂, 1 mM CaCl₂). The CM5 sensor chips (GE Healthcare) were activated with NHS/EDC, followed by immobilization of mouse C5a (ACROBiosystems, Beijing, China), human C5a (ACROBiosystems, Beijing, China), mouse C5 (ACROBiosystems, Beijing, China) or mouse C5a-desArg (MCE, Shanghai, China). The peptide-protein interactions were characterized using a concentration-gradient approach (low to high) with a continuous flow rate of 30 μL/min (150 s injection duration). Between analyte concentrations, the sensor surface was regenerated with 10 mM glycine-HCl (pH 2.0; 5 min treatment). Binding and dissociation constants were obtained by globally fitting the data to a 1:1 Langmuir binding model using a Biacore Insight evaluation software (Cytiva, USA).
# CLP-induced septic mice [3] = assay: Organ function, coagulation and lung histology in CLP mice; assay type: in vivo, mouse; settings: 24 h post-CLP surgery
# Experimental: (§2) The cecal ligation and puncture (CLP) model was established in male C57BL/6 mice (9-10 weeks old). Briefly, a midline laparotomy was performed to exteriorize the cecum under general anesthesia. The cecum was ligated at the distal three-quarters using sutures. Subsequently, a single through-and-through puncture was made in the ligated segment using a 22-gaμge needle, followed by small volume of fecal content was gentle extrusion. The cecum was then repositioned within abdominal cavity, and the laparotomy incision was closed in layers. All animals were administered 1 mL of sterile saline for postoperative fluid resuscitation. Sham-operated controls underwent identical surgical procedures without cecal ligation or puncture. In this work, mice received administration via intravenous injection 1 hour after CLP surgery. The animal mortality was determined by the presence of confirmed death. […] Blood samples were collected 24 hours after CLP-modeling for hematological analysis (Mindray BC-60R Vet) and biochemical analysis (Mindray BS-240 Vet, China), endothelial injury analysis (Njjcbio, Nanjing) and coagulation analysis (Legene, Beijing). Subsequently, mice were sacrificed to collect the main organs for morphological and pathological analysis.
# CLP-induced septic mice [4] = assay: Kaplan-Meier survival of CLP model mice; assay type: in vivo, mouse
# Experimental: as §2
# mouse neutrophils = assay: C5a-triggered chemotaxis assay, mouse neutrophils (IncuCyte); assay type: cell-based; settings: 10 ng to 1 μg per well, 24 h
# Experimental: (§3) The chemotaxis assay in this study was monitored and quantified by the IncuCyte ZOOM® Live-Cell Imaging System. The y-axis label “total area normalized to initial area in each group” in Fig. 3k, m represent the ratio of the total cell area at each time point to the initial area (0 h) within the same field of view. A higher ratio indicates […] cell migration activity.
# (§4) One hundred nanograms of human C5a protein (ACROBiosystems, Beijing, China) was preincubated with linear or cyclic peptides at the indicated concentrations (10 ng, 100 ng, or 1 μg) in 1640 complete culture medium for 30 min. PMNs isolated by flow cytometric sorting for chemotaxis assays were purchased from Oribiotech Co., Ltd. (Shanghai, China). A total of 1 × 10^4 cells were added to the upper chamber of 96-well cell chemotaxis plates (Sartorius, Germany) and allowed to migrate at 37 °C for 24 h. The chemotactic response of neutrophils toward C5a with or without C5a-blocking peptides was quantified and analyzed via an IncuCyte ZOOM® Live-Cell Imaging System (Sartorius, Germany). The chemotactic response of mouse neutrophils was assessed following the established protocol for PMNs.
# [5] = mouse, 24 h
# Description: The peptides in the plasma were extracted with 15% TFA and quantified via reversed-phase high-performance liquid chromatography (HPLC) (Agilent 1260, USA).
# PMNs = assay: C5a-triggered chemotaxis assay, PMNs (IncuCyte); assay type: cell-based, human; settings: 10 ng to 1 μg per well, 24 h
# Experimental: as §3, §4
# mouse C5a = biological target: T2, mouse C5a (Mus musculus, UniProt P06684); assay: SPR binding affinity assay, immobilized mouse C5a; design: immobilization of mouse C5a (ACROBiosystems, Beijing, China); purchased ACROBiosystems
# T2 sequence (P06684 679-755 limits assumed): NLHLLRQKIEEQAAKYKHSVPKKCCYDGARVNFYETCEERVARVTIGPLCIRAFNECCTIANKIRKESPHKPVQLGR
# Experimental: as §1
# normal mice = assay: Systemic safety evaluation in normal mice; assay type: in vivo; settings: 100 μg/20 g i.v., 24 h
# Experimental: The cytotoxic potential of cyclic-peptides was evaluated in HUVECs and RAW 264.7 cells. Cells were incubated with serially diluted Cp1 (1 pg-100 μg/mL) for 24 hours at 37°C in a 5% CO₂ humidified atmosphere, followed by cell viability assessment using CCK-8 kit (Dojindo, Japan). For systemic safety evaluation, whole blood samples were collected for hematological analysis, biochemistry analysis and inflammatory profiling analysis. Following euthanasia, major organs were harvested, fixed and processed for H&E staining.
compound,measurement,setting,value
CSCC[C@@H]1NC(=O)[C@@H]2CCCN2C(=O)[C@H](CCSC)NC(=O)[C@H](CO)NC(=O)[C@H](Cc2c[nH]cn2)NC(=O)CNC(=O)[C@H](CO)NC(=O)[C@H](Cc2ccccc2)NC(=O)[C@H](CCCNC(=N)N)NC(=O)[C@H](CCC(=O)O)NC(=O)[C@H](Cc2ccccc2)NC(=O)[C@H](C(C)C)NC1=O [Cp1] (cyclo(HSMPMVFERFSG)),increase of absolute monocyte count (delayed peak) vs sham group,CLP model mice [1]; 12 h,69%
same,reduction in absolute neutrophil count vs CLP group,CLP model mice [1]; 12 h,63%
same,reduction in absolute monocyte count vs the 4-h peak value in the CLP group,CLP model mice [1]; peak at 12 h,38%
same,decrease of plasma neutrophil elastase (NE),CLP model mice [2]; ELISA,100%
same,decrease of plasma cfDNA,CLP model mice [2]; qPCR,68%
same,kon,"mouse C5a-desArg; pH 7.4, read-out: Ka vs mC5a-desArg (SPR)",2490 M⁻¹ s⁻¹
same,koff,mouse C5a-desArg; read-out: Kd (dissociation rate) vs mC5a-desArg (SPR),0.0089 s⁻¹
same,LDH and LAC levels,CLP-induced septic mice [3]; 100 μg/20 g,marked reduction
same,"coagulation function parameters (PT, APTT, TT, Fbg)",CLP-induced septic mice [3]; 100 μg/20 g,attenuated the sepsis-induced changes in the clotting and fibrinolytic systems
same,serum ALT and AST levels (liver function),CLP-induced septic mice [3]; 100 μg/20 g,effectively mitigated the increase
same,serum UREA and CREA levels (kidney injury),"CLP-induced septic mice [3]; 100 μg/20 g, vs untreated CLP mice",significantly lower
same,"lung injury, H&E pathological sections",CLP-induced septic mice [3],significantly ameliorated sepsis-induced pulmonary vascular leakage
same,improvement in the median survival time vs untreated CLP group,"CLP-induced septic mice [4]; mouse, in vivo",300%
same,7-day survival rate,"CLP-induced septic mice [4]; single administration 100 μg/20 g, n = 10",60%
same,suppression of C5a-driven recruitment of mouse neutrophils,mouse neutrophils,dose-dependently suppressed
same,stability in normal plasma,[5],comparable stabilities
same,suppression of C5a-driven recruitment of PMNs,PMNs,dose-dependently suppressed
same,kon,"mouse C5a; pH 7.4, read-out: Ka vs mC5a (SPR)",63800 M⁻¹ s⁻¹
same,koff,mouse C5a; read-out: Kd (dissociation rate) vs mC5a (SPR),0.359 s⁻¹
same,"hepatorenal toxicity and tissue injury (blood biochemistry, histopathology)",normal mice,no hepatorenal toxicity or tissue injury
